Experimental data published in US11919901B2 (Syndax Pharmaceuticals, Inc., priority 2021, dated 2024).

Molecular target: Menin-MLL (Homo sapiens (Human), UniProt O00255)
Experiment: Determination of binding constants (Ki) to Menin-MLL (HTRF)
Conditions: HTRF, 0.25 nM H-FL-Menin, 3.2 nM FITC-MLL-4-43, 24 hr incubation; for Ki: read-out: Menin-MLL Ki HTRF Assay: Ki

Chain of Menin-MLL (O00255 whole entry): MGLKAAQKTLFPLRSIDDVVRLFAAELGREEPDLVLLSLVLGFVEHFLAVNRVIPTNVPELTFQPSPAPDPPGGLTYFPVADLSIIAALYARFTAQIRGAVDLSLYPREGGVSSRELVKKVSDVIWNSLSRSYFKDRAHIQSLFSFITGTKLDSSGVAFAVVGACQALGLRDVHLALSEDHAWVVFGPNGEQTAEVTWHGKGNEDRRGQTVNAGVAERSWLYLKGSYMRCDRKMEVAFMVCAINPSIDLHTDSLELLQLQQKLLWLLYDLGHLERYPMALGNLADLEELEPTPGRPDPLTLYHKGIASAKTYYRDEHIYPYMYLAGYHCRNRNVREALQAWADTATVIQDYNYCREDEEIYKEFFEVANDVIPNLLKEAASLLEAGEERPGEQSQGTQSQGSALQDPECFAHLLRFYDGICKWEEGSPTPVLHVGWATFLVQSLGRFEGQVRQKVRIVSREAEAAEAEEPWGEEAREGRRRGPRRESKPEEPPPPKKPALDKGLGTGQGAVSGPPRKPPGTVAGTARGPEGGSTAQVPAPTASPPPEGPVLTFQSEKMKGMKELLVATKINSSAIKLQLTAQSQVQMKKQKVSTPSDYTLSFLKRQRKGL

How did the Ki turn out when `CC(C)N(C(=O)c1cc(F)ccc1Oc1cncnc1N1CC2(CCN(C[C@@H]3CC[C@@H](NS(=N)(=O)c4ccccc4)CO3)CC2)C1)C(C)C` (mixture of isomers) [Compound 228, 5-Fluoro-N,N-diisopropyl-2-((4-(7-(((2S,5R)-5-(phenylsulfonoamidimidamido)tetrahydro-2H-pyran-2-yl)methyl)-2,7-diazaspiro[3.5]nonan-2-yl)pyrimidin-5-yl)oxy)benzamide] was run?
Its Ki is under 1 nM.

Which Ki does the source give for `CC[S@@](=N)(=O)N[C@@H]1CC[C@@H](CN2CCC3(CC2)CN(c2ncncc2Oc2ccc(F)cc2C(=O)N(C(C)C)C(C)C)C3)OC1` (single isomer, unassigned) [Compound 226] here?
Its Ki is under 1 nM.

Which Ki does the source give for `CC[S@](=N)(=O)N[C@@H]1CC[C@@H](CN2CCC3(CC2)CN(c2ncncc2Oc2ccc(F)cc2C(=O)N(C(C)C)C(C)C)C3)OC1` (single isomer, unassigned) [Compound 227] here?
The Ki was under 1 nM.

How did the Ki turn out when `CC(C)N(C(=O)c1cc(F)ccc1Oc1cncnc1N1CC2(CCN(C[C@@H]3CC[C@@H](N[S@@](=N)(=O)c4ccccc4)CO3)CC2)C1)C(C)C` (single isomer, unassigned) [Compound 229] was run?
Its Ki is under 1 nM.

With `CC(C)N(C(=O)c1cc(F)ccc1Oc1cncnc1N1CC2(CCN(C[C@@H]3CC[C@@H](N[S@](=N)(=O)c4ccccc4)CO3)CC2)C1)C(C)C` (single isomer, unassigned) [Compound 230] as the molecule, how does the Ki read?
Its Ki is under 1 nM.

With `CCS(=O)(=O)N[C@@H]1CC[C@@H](CN2CCC3(CC2)CN(c2ncncc2Oc2ccc(F)cc2C(=O)N(C(C)C)[C@@H]2CC[C@H]2O)C3)OC1` (single isomer, unassigned) [Compound 256] as the molecule, how does the EC50 read?
Its EC50 is under 50 nM.

What about the Ki of the same molecule?
Its Ki is under 1 nM.

Which results are given for `CCS(=O)(=O)N[C@@H]1CC[C@@H](CN2CCC3(CC2)CN(c2ncncc2Oc2ccc(F)cc2C(=O)N(C(C)C)[C@H]2CC[C@@H]2O)C3)OC1` (single isomer, unassigned) [Compound 257]?
EC50: < 50 nM; Ki: < 1 nM

`CCN(C(=O)c1cc(F)ccc1Oc1cncnc1N1CC2(CCN(C[C@H]3CC[C@H](NS(=O)(=O)CC)CO3)CC2)C1)C(C)C` (stereo in doubt) [Compound 52, N-ethyl-2-((4-(7-(((2R,5S)-5-(ethylsulfonamido)tetrahydro-2H-pyran-2-yl)methyl)-2,7-diazaspiro[3.5]nonan-2-yl)pyrimidin-5-yl)oxy)-5-fluoro-N-isopropylbenzamide] was tested. Which EC50 did it give?
Its EC50 is under 50 nM.

How did the Ki turn out when `CNS(=O)(=O)N[C@H]1CC[C@H](CN2CCC3(CC2)CN(c2ncncc2Oc2ccc(F)cc2C(=O)N(C(C)C)C2CC2)C3)OC1` (stereo in doubt) [Compound 146, N-Cyclopropyl-5-fluoro-N-isopropyl-2-((4-(7-(((2R,5S)-5-((N-methylsulfamoyl)amino)tetrahydro-2H-pyran-2-yl)methyl)-2,7-diazaspiro[3.5]nonan-2-yl)pyrimidin-5-yl)oxy)benzamide] was run?
The Ki was under 1 nM.

How did the Ki turn out when `CC(C)N(CC(F)(F)F)C(=O)c1cc(F)ccc1Oc1nncnc1N1CC2(CCN(C[C@H]3CC[C@H](NS(=O)(=O)N4CCC4)CO3)CC2)C1` (stereo in doubt) [Compound 194, 2-((5-(7-(((2R,5S)-5-(Azetidine-1-sulfonamido)tetrahydro-2H-pyran-2-yl)methyl)-2,7-diazaspiro[3.5]nonan-2-yl)-1,2,4-triazin-6-yl)oxy)-5-fluoro-N-isopropyl-N-(2,2,2-trifluoroethyl)benzamide] was run?
The Ki was under 1 nM.

With `CCN(C(=O)c1cc(F)ccc1Oc1cncnc1N1CC2(CCN(C[C@@H]3CC[C@@H](NS(=O)(=O)C(C)C)CO3)CC2)C1)C(C)C` [Compound 3, N-ethyl-5-fluoro-N-isopropyl-2-((4-(7-(((2S,5R)-5-((1-methylethyl)sulfonamido)tetrahydro-2H-pyran-2-yl)methyl)-2,7-diazaspiro[3.5]nonan-2-yl)pyrimidin-5-yl)oxy)benzamide] as the molecule, how does the EC50 read?
The EC50 was under 50 nM.

And the Ki?
Its Ki is under 1 nM.

How did the EC50 turn out when `CCN(C(=O)c1cc(F)ccc1Oc1cncnc1N1CC2(CCN(C[C@@H]3CC[C@@H](NS(=O)(=O)C4COC4)CO3)CC2)C1)C(C)C` [Compound 5, N-ethyl-5-fluoro-N-isopropyl-2-((4-(7-(((2S,5R)-5-(oxetane-3-sulfonamido)tetrahydro-2H-pyran-2-yl)methyl)-2,7-diazaspiro[3.5]nonan-2-yl)pyrimidin-5-yl)oxy)benzamide] was run?
The EC50 was under 50 nM.

And the Ki?
Its Ki is under 1 nM.

Which results are given for `CCN(C(=O)c1cc(F)ccc1Oc1cncnc1N1CC2(CCN(C[C@@H]3CC[C@@H](NS(=O)(=O)CC4CC4)CO3)CC2)C1)C(C)C` [Compound 7, 2-((4-(7-(((2S,5R)-5-((cyclopropylmethyl)sulfonamido)tetrahydro-2H-pyran-2-yl)methyl)-2,7-diazaspiro[3.5]nonan-2-yl)pyrimidin-5-yl)oxy)-N-ethyl-5-fluoro-N-isopropylbenzamide]?
EC50: < 50 nM; Ki: < 1 nM

Which EC50 does the source give for `CCN(C(=O)c1cc(F)ccc1Oc1cncnc1N1CC2(CCN(C[C@@H]3CC[C@@H](NS(=O)(=O)CCOC)CO3)CC2)C1)C(C)C` [Compound 8, N-ethyl-5-fluoro-N-isopropyl-2-((4-(7-(((2S,5R)-5-((2-methoxyethyl)sulfonamido)tetrahydro-2H-pyran-2-yl)methyl)-2,7-diazaspiro[3.5]nonan-2-yl)pyrimidin-5-yl)oxy)benzamide] here?
Its EC50 is under 50 nM.

What about the Ki of the same molecule?
The Ki was under 1 nM.

What does the source list for `CCCS(=O)(=O)N[C@@H]1CC[C@@H](CN2CCC3(CC2)CN(c2ncncc2Oc2ccc(F)cc2C(=O)N(CC)C(C)C)C3)OC1` [Compound 9, N-ethyl-5-fluoro-N-isopropyl-2-((4-(7-(((2S,5R)-5-(propylsulfonamido)tetrahydro-2H-pyran-2-yl)methyl)-2,7-diazaspiro[3.5]nonan-2-yl)pyrimidin-5-yl)oxy)benzamide]?
EC50: < 50 nM; Ki: < 1 nM

`CCN(C(=O)c1cc(F)ccc1Oc1cncnc1N1CC2(CCN(C[C@@H]3CC[C@@H](NS(=O)(=O)C4CCOC4)CO3)CC2)C1)C(C)C` (stereo partly drawn) [Compound 10, N-ethyl-5-fluoro-N-isopropyl-2-((4-(7-(((2S,5R)-5-((tetrahydrofuran)-3-sulfonamido)tetrahydro-2H-pyran-2-yl)methyl)-2,7-diazaspiro[3.5]nonan-2-yl)pyrimidin-5-yl)oxy)benzamide] was tested. Which EC50 did it give?
Its EC50 is under 50 nM.

What about the Ki of the same molecule?
Its Ki is under 1 nM.

For `CC(C)N(C(=O)c1cc(F)ccc1Oc1cncnc1N1CC2(CCN(C[C@@H]3CC[C@@H](NC(=O)OC(C)(C)C)CO3)CC2)C1)C1CC1` [Compound 17, tert-butyl ((3R,6S)-6-((2-(5-(2-(cyclopropyl(isopropyl)carbamoyl)-4-fluorophenoxy)pyrimidin-4-yl)-2,7-diazaspiro[3.5]nonan-7-yl)methyl)tetrahydro-2H-pyran-3-yl)carbamate], which EC50 is on record?
Its EC50 is under 50 nM.

And the Ki?
The Ki was under 1 nM.

Which EC50 does the source give for `CC(C)N(C(=O)c1cc(F)ccc1Oc1cncnc1N1CC2(CCN(C[C@@H]3CC[C@@H](NS(C)(=O)=O)CO3)CC2)C1)C1CC1` [Compound 18, N-cyclopropyl-5-fluoro-N-isopropyl-2-((4-(7-(((2S,5R)-5-(methylsulfonamido)tetrahydro-2H-pyran-2-yl)methyl)-2,7-diazaspiro[3.5]nonan-2-yl)pyrimidin-5-yl)oxy)benzamide] here?
Its EC50 is under 50 nM.

What about the Ki of the same molecule?
Its Ki is under 1 nM.

What does the source list for `CC(C)N(C(=O)c1cc(F)ccc1Oc1cncnc1N1CC2(CCN(C[C@@H]3CC[C@@H](NS(=O)(=O)C(C)C)CO3)CC2)C1)C1CC1` [Compound 20, N-cyclopropyl-5-fluoro-N-isopropyl-2-((4-(7-(((2S,5R)-5-((1-methylethyl)sulfonamido)tetrahydro-2H-pyran-2-yl)methyl)-2,7-diazaspiro[3.5]nonan-2-yl)pyrimidin-5-yl)oxy)benzamide]?
EC50: < 50 nM; Ki: < 1 nM

Which results are given for `CC(C)N(C(=O)c1cc(F)ccc1Oc1cncnc1N1CC2(CCN(C[C@@H]3CC[C@@H](NS(=O)(=O)C4COC4)CO3)CC2)C1)C1CC1` [Compound 22, N-cyclopropyl-5-fluoro-N-isopropyl-2-((4-(7-(((2S,5R)-5-(oxetane-3-sulfonamido)tetrahydro-2H-pyran-2-yl)methyl)-2,7-diazaspiro[3.5]nonan-2-yl)pyrimidin-5-yl)oxy)benzamide]?
EC50: < 50 nM; Ki: < 1 nM

With `C[C@@H]1COC[C@H](C)N1C(=O)c1cc(F)ccc1Oc1cncnc1N1CC2(CCN(C[C@@H]3CC[C@@H](NS(C)(=O)=O)CO3)CC2)C1` [Compound 23, N-((3R,6S)-6-((2-(5-(2-((3S,5R)-3,5-dimethylmorpholine-4-carbonyl)-4-fluorophenoxy)pyrimidin-4-yl)-2,7-diazaspiro[3.5]nonan-7-yl)methyl)tetrahydro-2H-pyran-3-yl)methanesulfonamide] as the molecule, how does the EC50 read?
The EC50 was under 50 nM.

What about the Ki of the same molecule?
Its Ki is under 1 nM.

`CCS(=O)(=O)N[C@@H]1CC[C@@H](CN2CCC3(CC2)CN(c2ncncc2Oc2ccc(F)cc2C(=O)N2[C@H](C)COC[C@@H]2C)C3)OC1` [Compound 24, N-((3R,6S)-6-((2-(5-(2-((3S,5R)-3,5-dimethylmorpholine-4-carbonyl)-4-fluorophenoxy)pyrimidin-4-yl)-2,7-diazaspiro[3.5]nonan-7-yl)methyl)tetrahydro-2H-pyran-3-yl)ethanesulfonamide] was tested. Which EC50 did it give?
Its EC50 is under 50 nM.

And the Ki?
Its Ki is under 1 nM.

What does the source list for `CC(C)S(=O)(=O)N[C@@H]1CC[C@@H](CN2CCC3(CC2)CN(c2ncncc2Oc2ccc(F)cc2C(=O)N2[C@H](C)COC[C@@H]2C)C3)OC1` [Compound 25, N-((3R,6S)-6-((2-(5-(2-((3S,5R)-3,5-dimethylmorpholine-4-carbonyl)-4-fluorophenoxy)pyrimidin-4-yl)-2,7-diazaspiro[3.5]nonan-7-yl)methyl)tetrahydro-2H-pyran-3-yl)propane-2-sulfonamide]?
EC50: < 50 nM; Ki: < 1 nM

What does the source list for `C[C@@H]1COC[C@H](C)N1C(=O)c1cc(F)ccc1Oc1cncnc1N1CC2(CCN(C[C@@H]3CC[C@@H](NS(=O)(=O)C4CC4)CO3)CC2)C1` [Compound 26, N-((3R,6S)-6-((2-(5-(2-((3S,5R)-3,5-dimethylmorpholine-4-carbonyl)-4-fluorophenoxy)pyrimidin-4-yl)-2,7-diazaspiro[3.5]nonan-7-yl)methyl)tetrahydro-2H-pyran-3-yl)cyclopropanesulfonamide]?
EC50: < 50 nM; Ki: < 1 nM
